The test system of one experiment is tobacco PBD6 plants. As to the kind of experiment: Measurement of the glyphosate tolerance of transformed tobacco plants sown in the open. It counts as in vivo. The following applies: untransformed tobacco PBD 6 controls, 0.8 kg/ha, 5-leaf stage, 30 days after the treatment. On the procedure:
The vector is introduced into the nononcogenic agrobacterium strain EHA 101 (Hood et al., 1987) carrying the cosmid pTVK 291 (Komari et al., 1986). The transformation method is based on the procedure of Horsh et al. (1985).
The regeneration of the tobacco PBD6 (source SEITA France) using foliar explants is carried out on a Murashige and Skoog (MS) basic medium containing 30 g/l of sucrose and […] of kanamycin. The foliar explants are removed from greenhouse- or in vitro-grown plants and transformed according to the foliar disc method (Science 1985, Vol. 227, p. 1229-1231) in three successive stages: the first comprises the induction of shoots on an MS medium supplemented with 30 g of sucrose containing 0.05 mg of naphthylacetic acid (ANA) and 2 mg/l of benzylaminopurine (BAP), for 15 days. The shoots formed during this stage are then developed by culturing on an MS medium supplemented with 30 g/l of sucrose, but not containing hormone, for 10 days. […]
The best plants obtained from the regeneration of transformed tobaccos are selected under a greenhouse after treating the plants, at the 5-leaf stage, […] […] Molecular hybridization analysis enabled the plants having integrated only one copy of the T-DNA to be determined. […]

For experiment [1], the system named is Spring colzas, Westar cultivar. Briefly: Greenhouse glyphosate treatment of transformed spring colza. It counts as in vivo. The conditions noted are these: 400 g a.s/ha. From the text:
Spring colzas, Westar cultivar, resistant to glyphosate, were obtained using the method of BOULTER et al., 1990 (Plant Science, 70: 91-99), with the constructs pRPA-BL 488 (dH-At-PTO-aroA-nos), pRPA-BL 502 (CaMV/H-At-PTO- aroA-nos).

Molecules are shown by their SMILES.

With `O=C(O)CNCP(=O)(O)O` [glyphosate, N-(phosphonomethyl)glycine], the “effect of glyphosate on control (untransformed) plants (phytotoxicity)” value in the experiment on tobacco PBD6 plants is “completely destroyed”. The “effect of glyphosate treatment on nontransgenic plants” value in experiment [1] is “destroys nontransgenic plants”.

(Values after patent publication US6362396B1, “Chimeric gene for the transformation of plants” (Aventis Crop Science, priority 1992, dated 2002).)
